Results reported in publication PMC9303812, “Asymmetrically Substituted m‐Terphenyl Phosphates Inhibit the Transcription Factor STAT5a” (Chembiochem, 2021).

What was measured:
[1] = molecular target: T1, STAT6 (Homo sapiens, UniProt P42226); assay: Fluorescence polarization (FP) binding assay, STAT6
T1 sequence (P42226 1-847): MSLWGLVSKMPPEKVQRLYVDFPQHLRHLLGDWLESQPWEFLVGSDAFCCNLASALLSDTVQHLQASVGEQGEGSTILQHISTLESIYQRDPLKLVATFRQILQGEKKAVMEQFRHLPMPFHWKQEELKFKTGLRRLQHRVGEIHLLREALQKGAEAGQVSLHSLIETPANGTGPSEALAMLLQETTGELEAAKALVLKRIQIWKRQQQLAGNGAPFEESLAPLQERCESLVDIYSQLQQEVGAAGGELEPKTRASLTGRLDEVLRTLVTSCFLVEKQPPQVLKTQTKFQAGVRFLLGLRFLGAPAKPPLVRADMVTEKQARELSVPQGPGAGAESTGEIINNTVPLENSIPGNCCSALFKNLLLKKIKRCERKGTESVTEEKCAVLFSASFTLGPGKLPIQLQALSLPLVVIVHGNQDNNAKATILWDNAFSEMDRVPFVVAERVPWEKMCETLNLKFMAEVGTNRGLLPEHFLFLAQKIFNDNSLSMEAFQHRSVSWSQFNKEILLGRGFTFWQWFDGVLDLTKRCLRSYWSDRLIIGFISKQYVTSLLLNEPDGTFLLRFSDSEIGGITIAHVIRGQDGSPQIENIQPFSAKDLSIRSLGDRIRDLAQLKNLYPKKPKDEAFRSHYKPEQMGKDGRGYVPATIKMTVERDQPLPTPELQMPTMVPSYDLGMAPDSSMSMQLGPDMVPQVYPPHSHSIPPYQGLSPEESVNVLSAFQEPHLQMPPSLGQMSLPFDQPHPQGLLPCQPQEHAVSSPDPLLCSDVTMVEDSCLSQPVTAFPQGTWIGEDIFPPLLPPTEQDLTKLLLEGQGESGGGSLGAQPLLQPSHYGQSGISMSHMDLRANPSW
Description: (§1) Ki values were calculated from IC50 values using the published equation.[2] […]
(§2) Table S2: Activities of 12 against STAT5 proteins in FP assays.
(§3) Fluorescence polarization assays
(§4) Fluorescence polarization assays were essentially carried out as previously described.[1] These assays quantitate to which extent a test compound is able to interfere with binding between a STAT protein and a fluorescein-labeled phosphotyrosine-containing peptide, which is known to bind to the SH2 domain of the respective STAT protein. The following protein […]
(§5) concentrations were used: 100 nM for STAT1, 150 nM for STAT3, 30 nM for STAT4, 180 nM for STAT5a, 90 nM for STAT5b and 105 nM for STAT6. All peptides were used at a concentration of 10 nM. The following peptides were used: 5 -carboxyfluorescein -GpYDKPHVL for STAT1; 5-carboxyfluorescein -GpYLPQTV-NH2 for STAT3; 5-carboxyfluorescein-GpYLPQNID-OH for STAT4; 5-carboxyfluorescein-GpYLVLDKW for STAT5a/b, and 5-carboxyfluorescein-GpYVPWQDLI-OH for STAT6. As a buffer system, 10 mM Tris (pH 8.0), 50 mM NaCl, 1 mM EDTA, 1 mM DTT, 0.1 % Nonidet P-40 substitute, and 2 % DMSO in water was used. All compounds tested were incubated for 1 h with the protein. Subsequently, the fluorescein-labeled peptide was added and the fluorescence polarization was measured with an Infinite F500 plate reader (Tecan) after another hour. IC50 values were converted to Ki-values using the published equation.[2] […]
(§6) 3:2 solution was added . The solution was degassed by applying ultrasonic under vacuum for one minute four times. 14 mg of Pd(PPh3)4 (12 µmol, 5 mol %) were added and the solution was refluxed overnight. After cooling down, the mixture was extracted with ethyl acetate, washed with brine and dried over Na2SO4. The crude product was purified by flash column […]
(§7) Method 2: Synthesis of dibenzylphosphate esters
(§8) The corresponding phenol (1 eq.) was dissolved in 10 ml/mmol MeCN or DMF and CCl4 (5 eq.), DIPEA (2 eq.) and DMAP (0.1 eq.) were added. After cooling down to 0°C, dibenzyl phosphite (1.5 eq.) was added dropwise and stirring was continued at the same temperature. […]

[2] = molecular target: T2, STAT1 (Homo sapiens, UniProt P42224); assay: Fluorescence polarization (FP) binding assay, STAT1
T2 sequence (P42224 1-750): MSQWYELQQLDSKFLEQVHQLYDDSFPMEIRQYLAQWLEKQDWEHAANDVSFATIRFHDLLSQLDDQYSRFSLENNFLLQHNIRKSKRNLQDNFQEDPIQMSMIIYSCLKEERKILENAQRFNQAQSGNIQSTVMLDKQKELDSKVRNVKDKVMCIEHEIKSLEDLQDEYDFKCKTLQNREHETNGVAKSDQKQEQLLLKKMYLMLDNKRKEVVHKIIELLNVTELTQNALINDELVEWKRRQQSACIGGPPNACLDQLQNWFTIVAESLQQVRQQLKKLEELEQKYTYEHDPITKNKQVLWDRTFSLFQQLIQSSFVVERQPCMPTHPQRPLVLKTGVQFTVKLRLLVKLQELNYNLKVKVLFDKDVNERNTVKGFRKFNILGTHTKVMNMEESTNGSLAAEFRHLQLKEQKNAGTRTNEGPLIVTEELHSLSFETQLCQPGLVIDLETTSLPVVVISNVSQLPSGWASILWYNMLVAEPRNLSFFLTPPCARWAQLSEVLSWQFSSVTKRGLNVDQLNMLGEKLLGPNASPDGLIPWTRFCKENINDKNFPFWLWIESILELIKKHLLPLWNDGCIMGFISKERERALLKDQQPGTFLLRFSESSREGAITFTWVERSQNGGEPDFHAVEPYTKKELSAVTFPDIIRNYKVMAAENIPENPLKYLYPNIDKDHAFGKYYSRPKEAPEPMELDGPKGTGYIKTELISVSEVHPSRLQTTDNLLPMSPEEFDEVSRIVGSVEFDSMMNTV
Description: as §1, §2, §3, §4, §5, §6, §7, §8

[3] = FP assay, Ki calculated from IC50 (n=3)

| SMILES | inhibition at 200 µM ([1]; read-out: STAT6 inhibition at 200 μM) | inhibition at 200 µM ([2]; read-out: STAT1 inhibition at 200 μM) | IC50 ([1]; FP assay) | Ki [1, 3] | IC50 ([2]; FP assay) | Ki [2, 3] |
| --- | --- | --- | --- | --- | --- | --- |
| COc1cc(-c2cc(OP(=O)(O)O)cc(-c3cc(F)c(F)c(F)c3)c2)cc(OC)c1OC [6 b] | 39 ± 1% | 51 ± 5% | – | – | – | – |
| COc1cc(-c2cc(-c3cc(F)c(F)c(F)c3)cc(C(F)P(=O)(O)O)c2)cc(OC)c1OC (stereo not drawn) [compound 12] | – | – | 144 ± 2.8 µM | 71.5 ± 1.4 µM | 90.6 ± 0.2 µM | 44.6 ± 0.1 µM |
